Source: PubChem BioAssay AID1645865 (Buhrlage Lab, Dana-Farber Cancer Institute and Novartis …, 2021)
Active and inactive are the calls of the source.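 The calls were made as follows: active = maximal inhibition of the USP30 enzyme reaching 30% or more across the dose series; inactive = the rest.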

Target: Ubiquitin carboxyl-terminal hydrolase 30 (Homo sapiens) (UniProt Q70CQ3)
Experiment: ubiquitin-specific protease 30 DUB inhibitors, concentration-effect, biochemical, validation of primary actives (AID 1645865)
Conditions: purified USP30, Ub-rhodamine cleavage, fluorescence, 2 h

Sequence of Ubiquitin carboxyl-terminal hydrolase 30 (Homo sapiens) (Q70CQ3 whole entry, looked up): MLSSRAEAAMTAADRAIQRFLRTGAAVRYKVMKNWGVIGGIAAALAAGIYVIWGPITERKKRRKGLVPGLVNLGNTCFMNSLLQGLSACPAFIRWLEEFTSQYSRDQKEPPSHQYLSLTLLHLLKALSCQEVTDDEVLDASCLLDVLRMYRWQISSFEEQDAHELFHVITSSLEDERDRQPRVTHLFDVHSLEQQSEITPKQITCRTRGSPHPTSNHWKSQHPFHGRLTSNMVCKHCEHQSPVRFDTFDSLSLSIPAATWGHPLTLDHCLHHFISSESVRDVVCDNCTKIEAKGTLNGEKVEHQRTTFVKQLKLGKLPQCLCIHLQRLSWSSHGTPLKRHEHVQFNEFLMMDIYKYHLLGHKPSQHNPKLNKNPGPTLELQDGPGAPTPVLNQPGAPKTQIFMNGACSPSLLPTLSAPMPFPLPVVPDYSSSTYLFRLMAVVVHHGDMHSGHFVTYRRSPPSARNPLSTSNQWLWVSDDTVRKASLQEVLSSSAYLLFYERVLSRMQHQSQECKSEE

IC50, inactive:
O=C(Nc1cccc(F)c1)c1ncoc1-c1ccco1 > 50 µM
O=C(Nc1ccc(NS(=O)(=O)c2ccc3c4c(cccc24)CC3)cc1)c1ccccc1 > 50 µM
Cc1ccccc1NC(=O)c1ccc(N2CCCCC2)nn1 > 50 µM
O=c1ccc(-c2noc(-c3ccc4cc[nH]c4c3)n2)c[nH]1 > 50 µM
COc1cc(OC)c2c(c1)C(=O)C1=C(COC(C)(O)C1)C2=O (stereo not drawn) > 50 µM
O=S(=O)(c1ccc2c(c1)OCCO2)N(Cc1ccccc1)Cc1nnc(-c2ccccc2)o1 > 50 µM
Cc1csc2ncc(C(=O)N3CCN(c4ccccc4F)CC3)c(=O)n12 > 50 µM
COc1ccc(C(=O)Nc2ccc3c(c2)Sc2ncccc2C(=O)N3C)cn1 > 50 µM
Cc1cc(=O)n2c3c(c4c(cc13)c(CO)cc(=O)n4C)OC2 > 5 µM
O=C(COC(=O)CCc1ccc(S(=O)(=O)N2CCOCC2)cc1)Nc1ccc2c(c1)OCCO2 > 50 µM
COCCn1c(=S)[nH]c2cc(C(=O)NCCSCc3ccccc3)ccc2c1=O > 5 µM
O=C(c1cccnc1)N1CCC2(CC1)CC1(CO2)Nc2ccccc2-n2cccc21 (stereo not drawn) > 50 µM
O=C1Cc2ccccc2C(=O)N1c1ccc2c(c1)OCO2 > 50 µM
COc1ccc(CNC(=O)CN2C(=O)C(C)=C(c3ccc(C)cc3)S2(=O)=O)cc1 > 50 µM
COc1ccc(CCn2cnc3c4ccccc4n(C)c3c2=O)cc1OC > 50 µM
Cc1ccc2c(c1)c(=O)c(C(=O)c1ccc(F)cc1)cn2CC(=O)Nc1ccc2c(c1)OCCO2 > 5 µM
O=C(c1cc(Cl)ccc1Cl)N1CCN(c2ccc3nnc(-c4ccco4)n3n2)CC1 > 50 µM
Cc1ccccc1N1C(=O)/C(=C\c2cccn2C)c2ccccc2C1=O > 50 µM
O=C(O)c1ccccc1C(=O)Nc1ccc(SC(C(=O)Nc2ccccc2)c2ccccc2)cc1 (stereo not drawn) > 50 µM
O=C(NCc1cccnc1)C1CCN(c2cnc(N3CCCCCC3)nc2)CC1 > 50 µM
Cc1nc(-c2ccccn2)sc1C(=O)Nc1ccc(C#N)cc1 > 50 µM
CCOc1ccc(S(=O)(=O)Nc2ccc[nH]c2=O)cc1 > 50 µM
CN(C)c1ccc(CCN2CCc3nc4cccnc4cc3C2)cc1 > 50 µM
CCCc1nc2sc3c(N(CC)CC)ncnc3c2c2c1CCC2 > 50 µM
O=C(CSc1ncnc2c1sc1cccc(F)c12)N1CCCCCC1 > 50 µM
CCCn1c(=O)n(CC(=O)c2ccccc2F)c2c(C(N)=O)nc(-c3ccco3)nc21 > 50 µM
Cn1cc2cccc(NC(=O)c3ccc(F)cc3)c2n1 > 50 µM
CCC1OC(O)(C(C)C(O)C(C)C2OC(=O)/C(C)=C/C(C)=CC(C)C(O)C(C)C/C(C)=C/C=C/C2OC)CC(OC(=O)/C=C/C(=O)NC2=C(O)CCC2=O)C1C (stereo not drawn) > 50 µM
O=C(Cn1cnc(-c2noc(-c3ccncc3)n2)c1)N1CCN(c2ccccc2F)CC1 > 50 µM

IC50, active:
CN(C)c1ccc(C2CC(c3c(O)n(C)c(=O)[nH]c3=O)=Nc3ccccc3S2)cc1 (stereo not drawn) 1.92 µM
COc1ccc(COc2ccc3c(C)c(CC(=O)N4CC[C@@]5(O)CCCC[C@H]5C4)c(=O)oc3c2)cc1 2.22 µM
O=C(COc1ccc2oc3c(c2c1)CCCC3)Nc1ccccn1 30.6 µM
Cc1ccc(-n2nnc(C(=O)NC3CCCCC3)c2N)cc1 21.4 µM
Cc1cccc(NC(=O)CSc2nnc(-c3n[nH]c4c3CCC4)n2N)c1C 20.2 µM
O=C1Nc2c(Cl)cc(Cl)cc2C1(O)c1sc(NC2CCCCC2)nc1-c1ccccc1 (stereo not drawn) 31.2 µM
C[C@]12C(=O)N(c3ccc(C(=O)NCc4ccc(F)cc4)cc3)C(=O)N1CCc1c2[nH]c2ccccc12 35.8 µM
O=C(COc1ccccc1-c1nnc(-c2ccccc2)o1)Nc1ccc(F)cc1F 2.16 µM
COc1ccc(-c2cc3c(=O)n(CC(=O)Nc4ccccc4Cl)ccn3n2)cc1 4.23 µM
O=C(NCc1ccc(-c2nc3cnccc3o2)cc1)c1ccccc1F 17.5 µM
c1ccc(-c2nc(-c3nnn(-c4ccccc4)c3-c3ccncc3)no2)cc1 2.29 µM
COc1ccc(NC(=O)c2ccccc2OCC(=O)Nc2ccccc2C(F)(F)F)c(C)c1 28.8 µM
O=C(Nc1ccc(-c2cn3ccccc3n2)cc1)C1C=C2C=C(Br)C=CC2OC1=O (stereo not drawn) 0.337 µM
O=C(Nc1cccc(Br)c1)c1cc(-c2cccnc2)n[nH]1 1.55 µM
O=C(Cn1cnc2c(oc3ccccc32)c1=O)NCc1ccccc1Cl 35.9 µM
Cc1ccc(-c2nc(Cn3cnc4ccccc4c3=O)cs2)cc1 4.83 µM
Cc1cnnn1-c1ccc(C(=O)Nc2ccc(Cl)cc2)cc1 29.5 µM
COc1cccc(N2CCN(c3ccc4nnc(CCC(=O)N5CCc6ccccc6C5)n4n3)CC2)c1 39.2 µM
CC1=C(C(=O)Nc2ccccc2C)C(c2ccc(OCc3ccccc3F)cc2)n2ncnc2N1 (stereo not drawn) 30.6 µM
